{"source": "PubChem BioAssay (NCI)", "test_in_all_cases": "growth of human tumour cells (NCI), 48 h", "key": {"SK-OV-3 ovarian": {"system": "SK-OV-3 ovarian"}, "HOP-92 NSCLC": {"system": "HOP-92 NSCLC"}, "NCI/ADR-RES ovarian": {"system": "NCI/ADR-RES ovarian"}, "HOP-62 NSCLC": {"system": "HOP-62 NSCLC"}, "HT29 colon": {"system": "HT29 colon"}, "ACHN renal": {"system": "ACHN renal"}, "SW-620 colon": {"system": "SW-620 colon"}, "MOLT-4 leukemia": {"system": "MOLT-4 leukemia"}, "OVCAR-4 ovarian": {"system": "OVCAR-4 ovarian"}, "MDA-MB-231 breast": {"system": "MDA-MB-231 breast"}, "RXF 393 renal": {"system": "RXF 393 renal"}, "HCT-116 colon": {"system": "HCT-116 colon"}, "NCI-H522 lung": {"system": "NCI-H522 lung"}, "COLO 205 colon": {"system": "COLO 205 colon"}, "DU-145 prostate": {"system": "DU-145 prostate"}, "HCT-15 colon": {"system": "HCT-15 colon"}, "OVCAR-3 ovarian": {"system": "OVCAR-3 ovarian"}, "UACC-257 melanoma": {"system": "UACC-257 melanoma"}, "SK-MEL-28 melanoma": {"system": "SK-MEL-28 melanoma"}, "SK-MEL-2 melanoma": {"system": "SK-MEL-2 melanoma"}, "CAKI-1 renal": {"system": "CAKI-1 renal"}, "PC-3 prostate": {"system": "PC-3 prostate"}, "BT-549 breast": {"system": "BT-549 breast"}, "MCF7 breast": {"system": "MCF7 breast"}, "M14 melanoma": {"system": "M14 melanoma"}, "HS 578T breast": {"system": "HS 578T breast"}, "TK-10 renal": {"system": "TK-10 renal"}}, "note": "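Protocol summary: plate cells (96-well), add compound at 5 concentrations, incubate 48 h, interpolate endpoints linearly. GI50: concentration for 50% inhibition of growth. Definition used: TGI = concentration required for complete inhibition of growth.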", "data": [{"smiles": "N=C(N)c1ccc(-c2ccc(-c3ccc(F)cc3)o2)o1", "values": [{"measurement": "TGI", "setting": "SK-OV-3 ovarian", "value": 7140, "unit": "nM"}, {"measurement": "GI50", "setting": "HOP-92 NSCLC", "value": 1210, "unit": "nM"}, {"measurement": "TGI", "setting": "HOP-92 NSCLC", "value": 2950, "unit": "nM"}, {"measurement": "GI50", "setting": "NCI/ADR-RES ovarian", "value": 1670, "unit": "nM"}, {"measurement": "TGI", "setting": "NCI/ADR-RES ovarian", "value": 4100, "unit": "nM"}, {"measurement": "GI50", "setting": "HOP-62 NSCLC", "value": 1600, "unit": "nM"}, {"measurement": "TGI", "setting": "HOP-62 NSCLC", "value": 3250, "unit": "nM"}, {"measurement": "GI50", "setting": "HT29 colon", "value": 606, "unit": "nM"}, {"measurement": "TGI", "setting": "HT29 colon", "value": 1940, "unit": "nM"}, {"measurement": "GI50", "setting": "ACHN renal", "value": 1600, "unit": "nM"}, {"measurement": "TGI", "setting": "ACHN renal", "value": 2970, "unit": "nM"}, {"measurement": "GI50", "setting": "SW-620 colon", "value": 943, "unit": "nM"}, {"measurement": "TGI", "setting": "SW-620 colon", "value": 2380, "unit": "nM"}, {"measurement": "GI50", "setting": "MOLT-4 leukemia", "value": 1600, "unit": "nM"}, {"measurement": "TGI", "setting": "MOLT-4 leukemia", "value": 4680, "unit": "nM"}, {"measurement": "GI50", "setting": "OVCAR-4 ovarian", "value": 1620, "unit": "nM"}, {"measurement": "TGI", "setting": "OVCAR-4 ovarian", "value": 3200, "unit": "nM"}, {"measurement": "GI50", "setting": "MDA-MB-231 breast", "value": 1570, "unit": "nM"}, {"measurement": "TGI", "setting": "MDA-MB-231 breast", "value": 3330, "unit": "nM"}, {"measurement": "GI50", "setting": "RXF 393 renal", "value": 1600, "unit": "nM"}, {"measurement": "TGI", "setting": "RXF 393 renal", "value": 3400, "unit": "nM"}, {"measurement": "GI50", "setting": "HCT-116 colon", "value": 1180, "unit": "nM"}, {"measurement": "TGI", "setting": "HCT-116 colon", "value": 2590, "unit": "nM"}, {"measurement": "GI50", "setting": "NCI-H522 lung", "value": 1360, "unit": "nM"}, {"measurement": "TGI", "setting": "NCI-H522 lung", "value": 2900, "unit": "nM"}, {"measurement": "GI50", "setting": "COLO 205 colon", "value": 1600, "unit": "nM"}, {"measurement": "TGI", "setting": "COLO 205 colon", "value": 3150, "unit": "nM"}, {"measurement": "GI50", "setting": "DU-145 prostate", "value": 1800, "unit": "nM"}, {"measurement": "TGI", "setting": "DU-145 prostate", "value": 3360, "unit": "nM"}, {"measurement": "GI50", "setting": "HCT-15 colon", "value": 631, "unit": "nM"}, {"measurement": "TGI", "setting": "HCT-15 colon", "value": 2080, "unit": "nM"}, {"measurement": "GI50", "setting": "OVCAR-3 ovarian", "value": 1840, "unit": "nM"}, {"measurement": "TGI", "setting": "OVCAR-3 ovarian", "value": 4160, "unit": "nM"}, {"measurement": "GI50", "setting": "UACC-257 melanoma", "value": 1980, "unit": "nM"}, {"measurement": "TGI", "setting": "UACC-257 melanoma", "value": 3690, "unit": "nM"}, {"measurement": "GI50", "setting": "SK-MEL-28 melanoma", "value": 1630, "unit": "nM"}, {"measurement": "TGI", "setting": "SK-MEL-28 melanoma", "value": 3180, "unit": "nM"}, {"measurement": "GI50", "setting": "SK-MEL-2 melanoma", "value": 1760, "unit": "nM"}, {"measurement": "TGI", "setting": "SK-MEL-2 melanoma", "value": 3390, "unit": "nM"}, {"measurement": "GI50", "setting": "CAKI-1 renal", "value": 1710, "unit": "nM"}, {"measurement": "TGI", "setting": "CAKI-1 renal", "value": 3560, "unit": "nM"}, {"measurement": "GI50", "setting": "PC-3 prostate", "value": 1220, "unit": "nM"}, {"measurement": "TGI", "setting": "PC-3 prostate", "value": 2570, "unit": "nM"}, {"measurement": "GI50", "setting": "BT-549 breast", "value": 2270, "unit": "nM"}, {"measurement": "TGI", "setting": "BT-549 breast", "value": 7190, "unit": "nM"}, {"measurement": "GI50", "setting": "MCF7 breast", "value": 685, "unit": "nM"}, {"measurement": "TGI", "setting": "MCF7 breast", "value": 2380, "unit": "nM"}, {"measurement": "GI50", "setting": "M14 melanoma", "value": 1230, "unit": "nM"}, {"measurement": "TGI", "setting": "M14 melanoma", "value": 2790, "unit": "nM"}, {"measurement": "GI50", "setting": "HS 578T breast", "value": 1950, "unit": "nM"}, {"measurement": "TGI", "setting": "HS 578T breast", "value": 4820, "unit": "nM"}, {"measurement": "GI50", "setting": "TK-10 renal", "value": 1550, "unit": "nM"}, {"measurement": "TGI", "setting": "TK-10 renal", "value": 2920, "unit": "nM"}]}]}
